We go through 4 compounds from article PMC5091859, “Protein Translation Enzyme lysyl-tRNA Synthetase Presents a New Target for Drug Development against Causative Agents of Loiasis and Schistosomiasis” (PLoS Neglected Tropical Diseases, 2016).

Details of series [1]: method as in PMID 22704625. To be noted: main limitation as a lead molecule; cited from earlier work.
The target of series [2] is SmKRS (S. mansoni lysyl-tRNA synthetase), wild type (Schistosoma mansoni, UniProt A0A3Q0KK01). The series can be described thus: Aminoacylation enzyme inhibition assay, SmKRS. In kind it is biochemical. The settings on record: 500 nM enzyme, 100 μM ATP, 500 μM L-lysine, 18 μM SmtRNALys, 37°C.
Procedure: Aminoacylation and enzyme inhibition assays for both KRSs were performed as described elsewhere [17, 48]. SmtRNA^Lys was refolded prior to enzyme assays by heating at 70°C for 10 minutes followed by addition of 10 mM MgCl2 and slow cooling to room temperature. Aminoacylation buffer for both worm KRSs contained 30 mM HEPES (pH 7.5), 150 mM NaCl, 30 mM KCl, 50 mM MgCl2, 1mM DTT, 100 μM ATP, 500 μM L-lysine, 18 μM SmtRNA^Lys, 2 U/ml E. coli inorganic pyrophosphatase (NEB) and 500 nM recombinant SmKRS or LlKRS protein at 37°C. Reaction at different time points was stopped by addition of 40 mM EDTA followed by transfer to ice. Recombinant maltose binding protein (MBP) was used as a control.
For series [3], the target named is T1, LlKRS (Loa loa, UniProt A0A1I7VQ84). The series can be described thus: Isothermal titration calorimetry, LlKRS. It counts as binding. To be noted: 30°C. How it is done:
(§1) ITC experiments were conducted at 30°C in the MicroCal ITC-200 apparatus (GE Healthcare) and results were fitted into graph using Microcal origin software. […] For LlKRS, titrations consisted of 0.4 μl of first injection followed by 39 injections of 1 μl with 150 s intervals between injections. For SmKRS, same titrations were performed with 120 s intervals.
A general note: ITC needs no label: the signal is the heat of the interaction.

The target of series [4] is human counterpart KRS (HsKRS). The settings on record: read-out: Affinity for human counterpart KRS; cited from earlier work.
Series [5] has as its system malaria liver stage. Set-up: method as in PMID 22704625. The settings on record: cited from earlier work.
In series [6] the target is T2, SmKRS (Schistosoma mansoni, UniProt A0A3Q0KK01). The series can be described thus: Isothermal titration calorimetry, SmKRS. The settings on record: 30°C. In kind it is binding. How it is done: as §1
Series [7] concerns malaria blood stage. Details: method as in PMID 22704625. The settings on record: cited from earlier work.
Series [8] has as its target Loa loa lysyl-tRNA synthetase (Loa loa). As to the kind of experiment: SEC; gel permeation chromatography of the purified protein on a column calibrated with high molecular weight standards, protein buffer as mobile phase, 0.5 ml/min; elution at dimer size, no absorbance at tetrameric size. (In general: Size exclusion chromatography separates by hydrodynamic size, large species first.)

The target in series [9] is Schistosoma mansoni lysyl-tRNA synthetase (Schistosoma mansoni). Described as above.
In series [10] the target is T1, LlKRS. As to the kind of experiment: Protein thermal shift assay, LlKRS. The settings on record: ligand 20 μM, KRS 2 μM (10:1), 1 mM L-lysine. It counts as binding. The procedure:
(§2) Protein melt curve assays for both worm KRSs were performed as reported earlier. Both KRSs were diluted in buffer containing 20 mM Tris (pH 8.0), 200 mM NaCl, 5 mM MgCl2, 1 mM L-lysine and 2 X SYPRO orange dye (Life Technologies). […] Ligand bound and unbound samples of both KRSs were heated from 20 to 96°C at a rate of 1°C min^-1 and fluorescence signals were monitored by StepOnePlus quantitative real-time PCR system (Life Technologies). […] Each curve was an average of three measurements and data were analyzed using thermal shift software (Life technologies). Samples without the addition of ligands were used to determine thermal melting profile of apo proteins. […] Derivative Tm (melting temperature) was used for analysis.

The target of series [11] is Human-like LlKRS V329Q/S346T mutant (Loa loa, UniProt A0A1I7VQ84). It counts as binding. To be noted: ligand 20 μM, KRS 2 μM (ten fold), 1 mM L-lysine.
For series [12], the target named is T2, SmKRS. As to the kind of experiment: Protein thermal shift assay, SmKRS. It counts as binding. The settings on record: ligand 20 μM, KRS 2 μM (10:1), 1 mM L-lysine. How it is done: as §2

Where “and” joins values, the source holds several entries; their conditions need not be identical. Equal values may be shown once. A value given as a limit tells only on which side of the number the result lay.

What is called IC50 is the concentration needed to halve the response being measured. Take `C[C@H]1CCC[C@H](C[C@H]2Cc3cc(O)cc(O)c3C(=O)O2)O1` [cladosporin]: in series [1], the Bioavailability result is listed as “Poor”. Besides, the concentration for half-maximal inhibition (IC50) in series [2] was 97 nM and ~97 nM. Besides, in [3], the “n Value (one site model), LlKRS” value is given as 0.821 ± 0.01; the “ΔH (ITC), LlKRS” value was -17.28 ± 0.3965 kcal/mol; the “ΔS (ITC), LlKRS” value is reported as -24.9 cal/mol/deg. Besides, the Kd in [4] was 3300 nM. Further, the IC50 in series [5] was below 100 nM. For the same compound, in [6], the “n Value (one site model), SmKRS” value stood at 0.979 ±0.00; the “ΔH (ITC), SmKRS” value was -16.59 ± 0.2013 kcal/mol; the “ΔS (ITC), SmKRS” value is on record as -21.7 cal/mol/deg. Besides, the Kd in [6] (PBS pH 7.4, 1 mM L-Lys, 2 mM MgCl2, read-out: Kd (ITC), SmKRS) worked out at 62.8 ± 7.8 nM. In series [7], the IC50 was below 100 nM.

The stoichiometry N is the number of molecules, sites or subunits per partner or assembly. In the case of Loa loa lysyl-tRNA synthetase (enzyme), the stoichiometry N in series [8] was found to be 2.

“Schistosoma mansoni lysyl-tRNA synthetase (enzyme)”: the stoichiometry N in series [9] was 2.

With “adenosine 5’-(β, γ-imido) triphosphate [AMPPNP]”, in [10], the “Thermal shift of LlKRS” value is ~ 0.3 °C. For the same compound, the “Thermal shift of human-like LlKRS” value in [11] was ~ 0.4 °C. Also, in [12], the “Thermal shift of SmKRS” value is ~ 0.4 °C.
